The target in experiment [1] is T1, PDIA3 (Homo sapiens, UniProt P30101).
T1 construct: made in house; host or cells: E. coli BL21 (vector pET21)
T1 sequence (P30101 25-505): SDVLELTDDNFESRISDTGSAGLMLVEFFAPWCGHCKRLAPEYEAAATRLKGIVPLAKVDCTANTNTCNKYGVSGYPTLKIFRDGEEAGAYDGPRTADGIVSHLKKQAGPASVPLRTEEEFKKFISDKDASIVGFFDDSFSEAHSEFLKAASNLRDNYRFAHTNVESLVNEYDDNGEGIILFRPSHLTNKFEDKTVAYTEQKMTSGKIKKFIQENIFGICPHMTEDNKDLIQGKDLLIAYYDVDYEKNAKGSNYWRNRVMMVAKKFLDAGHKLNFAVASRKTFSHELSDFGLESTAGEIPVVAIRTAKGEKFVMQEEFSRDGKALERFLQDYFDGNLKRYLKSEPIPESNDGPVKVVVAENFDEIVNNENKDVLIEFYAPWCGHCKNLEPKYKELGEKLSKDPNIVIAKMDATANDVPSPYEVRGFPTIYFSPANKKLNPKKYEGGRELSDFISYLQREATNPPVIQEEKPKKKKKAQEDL
Description: Differential scanning fluorimetry (thermal stability, SYPRO Orange). It is filed as binding. The conditions noted are these: flavonoid up to 50 μM, mainly at the highest concentration. How it is done:
Protein stability was tested by the fluorescence-based thermal stability assay or differential scanning fluorimetry (DSF) developed by Pantoliano and coworkers. DSF records the fluorescence emission signal from the binding of a dye (SYPRO orange) to the exposed hydrophobic patches upon protein unfolding. Fluorescence measurements were performed using a CFX96 Connect RT-PCR instrument (BioRad). 18 μl aliquots of protein solution (1 μM), freshly diluted in Tris Buffered saline (50 mM TrisHCl, pH 8.0, 150 mM NaCl) containing 0.1 mM DTT, 0.2 mM EDTA, and 1 : 1000 dilution of SYPRO Orange (50 mM stock solution in DMSO), were distributed in a 96-well plate. Sample wells were addition of increasing concentration (up to 50 μM) of individual flavonoid by adding 2 μl of 10-fold concentrated stock solutions freshly prepared. As control, the protein solution was added with 2 μl of the dilution buffer. A melting point analysis was recorded increasing the temperature from 20 to 95°C with an increment of 0.5°C and reading, at each temperature, the fluorescence in fluorescence resonance energy transfer mode (FRET). Each measure was the average of three sample wells reading and each DSF experiment was repeated at least three times. To calculate T m values, DSF data from the melting curve were exported and fitted to Boltzman equation using GraphPad software. Effect of flavonoids was evaluated comparing the T m values in presence and absence of each molecule.

In experiment [2] the target is T1, PDIA3. Description: Disulfide reductase activity with DiE-GSSG fluorogenic probe. The conditions noted are these: DiE-GSSG substrate; for Inhibition of disulfide reductase (redox) activity: 20 μM flavonoid (Figure 7). It is filed as biochemical. How it is done: Disulfide reductase activity of ERp57 was monitored by sensitive fluorescent assay using dieosin glutathione disulfide (DiE-GSSG) as fluorogenic probe. DiE-GSSG was synthesized by the reaction of eosin isothiocyanate with oxidized glutathione (GSSG) according to the method of Raturi and Mutus with some modifications. DiE-GSSG concentration was determined spectrophotometrically (ℇ 525 = 88,000 M^-1 cm^−1). Disulfide reductase activity was assayed in a reaction buffer containing 2 mM EDTA, 150 nM DiE-GSSG, and 5 μM DTT in PBS. A 20 μl aliquot of a stock solution of PDIA3 (1 μM) was added to the reaction mixture and DiE-GSSG reduction was monitored at 545 nm with excitation at 520 nm, at 25°C with continuous stirring. Reductase activity was calculated as the initial velocity in fluorescence increase. To test the effect of flavonoids on PDIA3 activity, the protein stock solution was previously incubated for 15 minutes at room temperature with different concentrations of each flavonoid and then a 20 μl aliquot subjected to assay in a reaction buffer containing the same concentration of the flavonoid.
Fluorescence quenching constant (K SV) values were given as means ± standard deviation and values of disulfide reductase activity were expressed in % of control sample ± relative standard deviation. All measurements were performed at least three times. Dunnett's test was used to compare the obtained reductase activity data with the activity of the untreated protein and a p value of <0.01 was considered as statistically significant.

Experiment [3] has as its target T1, PDIA3. The experiment can be described thus: DNA binding activity by EMSA. The experiment is classed as biochemical. Particulars: flavonoid 0 to 50 μM. How it is done: EMSA assay was performed using a 79-bp […] obtained by PCR as previously described. Amplified DNA was end-labeled by using 5-fluorescein-modified primers. 10 ng of DNA fragment was incubated with 1 μg of PDIA3 or a′ domain, in presence of increasing concentration of flavonoids (from 0 to 50 μM). Controls were performed using DNA alone and in the presence of each flavonoid. All tests were performed in 20 μl mixtures containing 20 mM Tris-HCl, pH 7.5, 50 mM NaCl, and 10% (v/v) glycerol. Samples were incubated for 1 hour at 25°C and then resolved on 5% polyacrylamide gels in 0,25% TBE buffer (22.5 mM Tris-borate, 5 mM EDTA, pH 8.3) at 150 V. Gel images were recorded using a ChemiDoc MP Imaging System (BioRad) equipped with an epi-blue excitation lamp and a 520 nm emission filter.

Each structure is given as a SMILES string.

As for `O=c1cc(-c2ccc(O)cc2)oc2cc(O)cc(O)c12` [Apigenin, apigenin], the “Effect on PDIA3 stability (T m)” value at PDIA3 [1] was “similar, but less pronounced, effect”. Further, at PDIA3 [2], the “Effect on disulfide reductase activity (in words)” value was “no evident effect”.

Take `COc1ccc(-c2cc(=O)c3c(O)c(OC)c(OC)cc3o2)cc1O` [Eupatorin, eupatorin]: at PDIA3 [2], the “Inhibition of disulfide reductase (redox) activity” value (shortened to “Inhibition of disulfide reductase”) stood at 40% and the “Effect on disulfide reductase activity (in words)” value is given as “noticeable inhibitory effect”. For the same molecule, on PDIA3 [2] (listed as eupatorin), the “Inhibition of disulfide reductase” value is given as “up to 40%”. The “Effect on DNA binding activity of PDIA3” value at PDIA3 [3] is “did not significantly affect and None”.

For `COc1ccc(-c2cc(=O)c3c(OC)c(OC)c(OC)cc3o2)cc1O` [Eupatorin-5-methyl ether, eupatorin-5-methyl-ether], at PDIA3 [2], the “Inhibition of disulfide reductase” value is reported as “up to 40%” and the “Effect on disulfide reductase activity (in words)” value was “noticeable inhibitory effect”. Also, the “Effect on DNA binding activity of PDIA3” value at PDIA3 [3] was “did not significantly affect”.

The values are drawn from paper PMC5164911, “Comparative Analysis of the Interaction between Different Flavonoids and PDIA3” (Oxidative Medicine and Cellular Longevity, 2016).
